Laboratory results reported in the NIST ThermoML archive (doi:10.1021/je700297c).
Numbers after ± are expanded uncertainties.

Experiment: activity coefficient (dimensionless); of the first substance listed, at infinite dilution; xn = mol fraction of the nth substance listed
Conditions: Liquid, Chromatography, x1 = 0

SMILES	activity coefficient (298 K)	activity coefficient (323 K)	activity coefficient (303 K)	activity coefficient (333 K)
C=CCCCCCC [oct-1-ene] + CCCCn1cc[n+](C)c1.F[B-](F)(F)F	59.1 ± 4	48.3 ± 3.3	–	–
C=CCCCCCC [oct-1-ene] + C[n+]1ccn(CCCC#N)c1.N#CN=C=[N-]	–	136 ± 9.3	142 ± 9.8	–
C=CCCCCCC [oct-1-ene] + C[n+]1ccn(CCCC#N)c1.O=S(=O)([N-]S(=O)(=O)C(F)(F)F)C(F)(F)F	–	106 ± 7.2	119 ± 8.1	–
CCCCCCCC [octane] + CCCCCCCCCCCCCCCC(=O)[O-].CCCCn1cc[n+](C)c1	–	–	–	1.6 ± 0.1
CCCCCCCC [octane] + CCCCCCCCCCCCCCCCCC(=O)[O-].CCCCn1cc[n+](C)c1	–	2.1 ± 0.2	–	1.6 ± 0.1
CCCCCCCC [octane] + CCCCCCCC[n+]1ccn(C)c1.F[B-](F)(F)F	16.1 ± 1.1	11 ± 0.8	–	–
CCCCCCCC [octane] + CCCC[n+]1ccn(C)c1.O=S(=O)([N-]S(=O)(=O)C(F)(F)F)C(F)(F)F	–	23.4 ± 1.6	–	–
CCCCCCCC [octane] + CCCCn1cc[n+](C)c1.F[B-](F)(F)F	117 ± 8	95.5 ± 6.5	–	–
CCCCCCCC [octane] + C[n+]1ccn(CCCC#N)c1.N#CN=C=[N-]	–	204 ± 14	264 ± 18	–
CCCCCCCC [octane] + C[n+]1ccn(CCCC#N)c1.O=S(=O)([N-]S(=O)(=O)C(F)(F)F)C(F)(F)F	–	159 ± 11	191 ± 13	–
C1CCOC1 [tetrahydrofuran] + CCCCCCCCCCCCCCCC(=O)[O-].CCCCn1cc[n+](C)c1	–	–	–	0.6 ± 0.1
C1CCOC1 [tetrahydrofuran] + CCCCCCCCCCCCCCCCCC(=O)[O-].CCCCn1cc[n+](C)c1	–	0.7 ± 0.1	–	0.6 ± 0.1
C1CCOC1 [tetrahydrofuran] + CCCCCCCC[n+]1ccn(C)c1.F[B-](F)(F)F	0.7 ± 0.1	0.6 ± 0.1	–	–
C1CCOC1 [tetrahydrofuran] + CCCC[n+]1ccn(C)c1.O=S(=O)([N-]S(=O)(=O)C(F)(F)F)C(F)(F)F	–	0.4 ± 0.1	–	–
C1CCOC1 [tetrahydrofuran] + CCCCn1cc[n+](C)c1.F[B-](F)(F)F	1.4 ± 0.1	1.4 ± 0.1	–	–
C1CCOC1 [tetrahydrofuran] + C[n+]1ccn(CCCC#N)c1.N#CN=C=[N-]	–	1.5 ± 0.1	1.6 ± 0.1	–
C1CCOC1 [tetrahydrofuran] + C[n+]1ccn(CCCC#N)c1.O=S(=O)([N-]S(=O)(=O)C(F)(F)F)C(F)(F)F	–	1.2 ± 0.1	1.3 ± 0.1	–
c1ccsc1 [thiophene] + CCCCCCCCCCCCCCCC(=O)[O-].CCCCn1cc[n+](C)c1	–	–	–	0.9 ± 0.1
c1ccsc1 [thiophene] + CCCCCCCCCCCCCCCCCC(=O)[O-].CCCCn1cc[n+](C)c1	–	0.8 ± 0.1	–	0.8 ± 0.1
c1ccsc1 [thiophene] + CCCCCCCC[n+]1ccn(C)c1.F[B-](F)(F)F	0.9 ± 0.1	0.8 ± 0.1	–	–
c1ccsc1 [thiophene] + CCCC[n+]1ccn(C)c1.O=S(=O)([N-]S(=O)(=O)C(F)(F)F)C(F)(F)F	–	0.7 ± 0.1	–	–
c1ccsc1 [thiophene] + CCCCn1cc[n+](C)c1.F[B-](F)(F)F	1.7 ± 0.1	1.5 ± 0.1	–	–
c1ccsc1 [thiophene] + C[n+]1ccn(CCCC#N)c1.N#CN=C=[N-]	–	1.6 ± 0.1	1.7 ± 0.1	–
c1ccsc1 [thiophene] + C[n+]1ccn(CCCC#N)c1.O=S(=O)([N-]S(=O)(=O)C(F)(F)F)C(F)(F)F	–	1.4 ± 0.1	1.5 ± 0.1	–
Cc1ccccc1 [toluene] + CCCCCCCCCCCCCCCC(=O)[O-].CCCCn1cc[n+](C)c1	–	–	–	0.8 ± 0.1
Cc1ccccc1 [toluene] + CCCCCCCCCCCCCCCCCC(=O)[O-].CCCCn1cc[n+](C)c1	–	0.8 ± 0.1	–	0.8 ± 0.1
Cc1ccccc1 [toluene] + CCCCCCCC[n+]1ccn(C)c1.F[B-](F)(F)F	1 ± 0.1	0.9 ± 0.1	–	–
